The subject of this experiment is MCDS mice (homozygous N617K collagen X mutation). Kind of experiment: Western blots of rib growth plate cartilage of MCDS mice. As to conditions: 1 week. The class given is in vivo, mouse. The procedure:
FIG. 2 illustrates the effect of carbamazepine on the growth plate pathology associated with MCDS. 3 week old MCDS mice were treated with CBZ for a period of one week. Untreated MCDS mice and mice wild-type for collagen X (WT) were used as controls. (a) H+E staining of the tibial growth plate at 4 weeks of age. (b) Immunohistochemistry for Grp78 and (c) Immunohistochemistry for collagen X. Yellow bars show the hypertrophic zone. Scale bars equal to 100 μM in all cases. (d) is a table showing growth plate zone measurements at 4 weeks of age. Mean±SEM. Number of animals shown in brackets. Significance between mutant untreated mice and treated mice shown by the asterisk. (e) Western blots of rib growth plate cartilage at 4 weeks of age for Grp78, ATF4, p62/SQSTM1 and LC3-II alongside the associated coomassie blue stain used as a loading control. Quantification of these blots against the coomassie protein level is shown in supplementary S4. (f) X-ray images of the pelvis at 6 weeks of age. The angle between the lines was measured in a minimum of 5 animals and a graph showing the mean±SEM is shown in (g). Graphs showing the percentage increase in growth of the (h) tibia and (i) femur from 3 weeks of age.
FIG. 8 illustrates the quantification of western blots on mouse rib growth plate tissue MCDS mice were treated with CBZ for a period of one week. Untreated MCDS mice and mice wild-type for collagen X (WT) were used as controls. Rib cages were dissected, treated with collagenase for 2 hours and cartilage growth plates were further dissected from each individual rib. Growth plates were pooled from 3 individual mice and protein extracted in SDS-PAGE buffer. 20 μg was used in SDS-PAGE and western blotting. Quantification of (a) BiP, (b) ATF4, (c) p62 and (d) LC3B protein levels against the coomassie protein level. Mean±SEM of three independent experiments;
The generation and genotyping of the Col10a1 p.N617K mouse line has been described previously (Rajpar et al 2009). Mice homozygous for the MCDS-causing N617K collagen X mutation were x-rayed at 3 weeks of age and treated with carbamazepine (250 mg/kg/day) for up to 21 days via a subcutaneous implantation of a slow-release pellet (Innovative research of America USA C-113) whilst the mouse was under anaesthetic. […]
Rib-cages from 4 week old mice were dissected and placed in collagenase medium for 1-2 hours, after which the cartilage growth plates were collected using a dissecting microscope. […] The supernatant was collected and analysed by SDS-PAGE.
The protein concentration of samples was determined using a Pierce bicinchoninic acid (BCA) protein assay with a bovine serum albumin standard curve. […]

Turning to `NC(=O)N1c2ccccc2C=Cc2ccccc21` [CBZ, Carbamazepine], under “MCDS mice”, the “concentration of the autophagy substrate p62 in growth plate extracts” value is given as “decrease”. Further, for the setting “MCDS mice, autophagy marker”, the “LC3B-II protein in growth plate extracts” value is given as “increase”. Under “treated vs untreated MCDS mice”, the “ATF4 level on western blots of growth plate extracts” value was “significantly reduced” and the “BiP level on western blots of growth plate extracts” value was “significantly reduced”.

(Values after patent US20190076440A1, “TREATMENT OF TISSUE DISORDERS” (priority 2016, published 2019).)
